{
  "source": "patent US10245255B2",
  "about": "“Compositions and methods for the treatment of obesity and related disorders” (THE REGENTS OF THE UNIVERSITY OF MICHIGAN, priority 2011, dated 2019)",
  "key": {"[1]": {"system": "broad panel of kinases representing most families", "test": "Broad panel of kinases", "assay_type": "biochemical"}, "[2]": {"test": "Established diet-induced obesity treatment group: body weight, food intake, body composition", "assay_type": "in vivo, C57BL/6 mice", "method": "Wild type male C57BL/6 mice were fed a high fat diet consisting of 45% of calories from fat (D12451 Research Diets Inc., New Brunswick, N.J.) starting at 8 weeks of age for 12-24 weeks, while normal diet C57BL/6 controls were maintained on normal chow diet consisting of 4.5% fat (5002 Lab Diet, Philadelphia, Pa.). Diets containing ω-3 fatty acids were fed as previously described 24. Rosiglitazone treatment was administered for three weeks by addition of the compound to the diet in mice that had been on HFD for 16 weeks. Each mouse consumed on average 3.5 mg/kg rosiglitazone per day. Amlexanox was administered by daily oral gavage. […] Animals were housed in a specific pathogen-free facility with a 12-hour light/12-hour dark cycle and given free access to food and water. All animal use was in compliance with the Institute of Laboratory Animal Research Guide for the Care and Use of Laboratory Animals and approved by the University Committee on Use and Care of Animals at the University of Michigan and UCSD.\nThe remaining weight of food provided was determined daily for singly housed mice. Daily food consumption was calculated from a three-day average."}, "[3]": {"test": "Ob/ob mice: liver weight, triglycerides, histology", "assay_type": "in vivo", "settings": "100 mg/kg for 14 weeks"}},
  "data": [
    {"compound": "CC(C)c1ccc2oc3nc(N)c(C(=O)O)cc3c(=O)c2c1", "note": "[amlexanox, 2-amino-7-isopropyl-5-oxo-5H-chromeno[2,3-b]pyridine-3-carboxylic acid]", "values": [
      {"measurement": "block of other kinases of a broad panel", "setting": "[1]", "result": "did not block"},
      {"measurement": "weight loss", "setting": "[2]; 25 mg/kg after 12 weeks of 45% high-fat diet, after 4 weeks of treatment", "result": 10, "unit": "g"},
      {"measurement": "reduction in overall mass of adipose tissue", "setting": "[2]; 25 mg/kg, HFD, treatment phase", "result": "> 6", "unit": "gram"},
      {"measurement": "time to return to control weights after treatment was stopped", "setting": "[2]; withdrawal after 8 weeks of 25 mg/kg treatment, HFD", "result": "6-8 weeks"},
      {"measurement": "large lipid droplets in liver (H & E staining)", "setting": "[3]", "result": "largely disseminated"},
      {"measurement": "reduction in liver weight", "setting": "[3]", "result": "greater than 20%"},
      {"measurement": "reduction of triglyceride contents in livers", "setting": "[3]", "result": "more than 50%"}
    ]}
  ]
}
